# Columns and labels:
# [1] = test system: fat cells differentiated from mouse-derived precursor fat cells (3T3-L1); test: Third test: fat accumulation in fat cells (Oil Red O, OD 520 nm); type: cell-based; conditions: positive control, final conc. 2 μg/mL; 3T3-L1 5 passages, 9 PDL; average of three
# Procedure: Specifically, the third test was conducted in accordance with the following procedure. The mouse-derived precursor fat cells (manufactured by Research Resources Bank, Resource No. JCRB 9014, Lot No. 01282009) were precultured in a culture medium (DMEM/F12 medium (passage culture, catalog No: “11330-032”, manufactured by Gibco Company, containing 10 mass % FBS, penicillin and streptomycin). Subsequently, from the medium and the cells subjected to the preculture, a cell suspension liquid containing the cells at 3×10^4 cells/mL was prepared. Further, 5 mL of the cell suspension liquid was seeded in each of 60 mm dishes (catalog No: Corning, Cat. No. 430166) (1.5×10^5 cells/dish), and cultured for 2 days under the condition of 37° C. (5 vol % CO2). […] 200 μL of the extraction liquid was transferred to a 96-well plate, and the absorbance at OD 520 nm was measured with an absorption spectrometer (trade name: “Synergy HTX” manufactured by Biotech Japan Corporation). It is evaluated that the higher the value of the absorbance at OD 520 nm, the more likely the fat accumulation is to occur in fat cells. […] The fat accumulation ratio in fat cells containing each sample, the berberine chloride solution or RO water was determined in accordance with the following calculation expression. […]
# [2] = test system: fat cells differentiated from mouse-derived precursor fat cells (3T3-L1); test: Eleventh test: fat accumulation in fat cells (Oil Red O); type: cell-based; conditions: positive control, final conc. 2 ug/mL; 3T3-L1 7 passages, 13 PDL
# Procedure: The mouse-derived precursor fat cells (manufactured by Research Resources Bank, Resource No. JCRB 9014, Lot No. 01282009) were precultured in a culture medium (DMEM/F12 medium (passage culture, catalog No: “11330-032”, manufactured by Gibco Company, containing 10 mass % FBS, penicillin and streptomycin). Subsequently, from the medium and the cells subjected to the preculture, a cell suspension liquid containing the cells at 3×10^4 cells/mL was prepared. Further, 5 mL of the cell suspension liquid was seeded in each of 60 mm dishes (catalog No: Corning, Cat. No. 430166) (1.5×10^5 cells/dish), and cultured for 2 days under the condition of 37° C. (5 vol % CO2). […] 200 μL of the extraction liquid was transferred to a 96-well plate, and the absorbance at OD 520 nm was measured with an absorption spectrometer (trade name: “Synergy HTX” manufactured by Biotech Japan Corporation). It is evaluated that the higher the value of the absorbance at OD 520 nm, the more likely the fat accumulation is to occur in fat cells. […] The fat accumulation ratio in fat cells containing each sample, the berberine chloride solution or RO water was determined in accordance with the following calculation expression. Fat accumulation ratio (%)=[(measured value at OD 520 nm for each sample)/(measured value at OD 520 nm for blank)×100] […]
smiles,measurement,setting,value
"COc1ccc2cc3[n+](cc2c1OC)CCc1cc2c(cc1-3)OCO2 [Berberine chloride, berberine chloride]","Fat accumulation ratio, Ave (Blank = 100)",[1],37%
same,"Fat accumulation ratio, Ave (Blank = 100)",[2],60%

# From patent US12409209B2, “Biological function regulating agent, epidermal metabolism promoting agent, fat accumulation inhibiting agent, fat decomposition promoting agent, adiponectin production promoting agent, functional food, cosmetic product, and method for producing biological function regulating agent” (NITTA GELATIN INC., priority 2020, dated 2025)
